Tests used:
[1] = molecular target: Glycogen synthase kinase-3 beta (Homo sapiens) (UniProt P49841); experiment: Inhibition of His tagged recombinant full length human GSK3B expressed in baculovirus at 500 nM by Z'-LYTE assay
[2] = molecular target: Aurora kinase B (Homo sapiens) (UniProt Q96GD4); experiment: Inhibition of His tagged recombinant full length human Aurora B expressed in baculovirus at 500 nM by Z'-LYTE assay
[3] = molecular target: T1, Serine/threonine-protein kinase Chk1 (Homo sapiens) (UniProt O14757); experiment: Inhibition of His tagged recombinant full length human CHK1 expressed in baculovirus at 500 nM by Z'-LYTE assay
T1 sequence (whole entry): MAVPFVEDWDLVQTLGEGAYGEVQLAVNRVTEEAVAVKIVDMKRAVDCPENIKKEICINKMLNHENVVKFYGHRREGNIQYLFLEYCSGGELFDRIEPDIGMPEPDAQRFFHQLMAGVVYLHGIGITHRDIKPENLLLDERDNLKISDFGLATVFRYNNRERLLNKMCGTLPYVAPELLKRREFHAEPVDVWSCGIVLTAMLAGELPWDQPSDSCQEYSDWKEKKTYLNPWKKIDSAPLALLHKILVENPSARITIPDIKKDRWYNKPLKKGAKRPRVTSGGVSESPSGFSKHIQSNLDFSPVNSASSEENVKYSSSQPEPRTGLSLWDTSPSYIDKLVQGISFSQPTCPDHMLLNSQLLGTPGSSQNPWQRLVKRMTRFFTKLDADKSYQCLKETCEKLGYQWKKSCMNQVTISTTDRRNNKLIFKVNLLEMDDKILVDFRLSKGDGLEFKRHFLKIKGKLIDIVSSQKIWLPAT

[4] = molecular target: Tyrosine-protein kinase Fer (Homo sapiens) (UniProt P16591); experiment: Inhibition of recombinant human GST-tagged FER (541 to 822 residues) expressed in baculovirus at 500 nM by Z'-LYTE assay- tagged
[5] = molecular target: Tyrosine-protein kinase HCK (Homo sapiens) (UniProt P08631); experiment: Inhibition of recombinant full length human N-terminal GST-tagged HCK expressed in baculovirus at 500 nM by Z'-LYTE assay
[6] = molecular target: T2, Inhibitor of nuclear factor kappa-B kinase subunit beta (Homo sapiens) (UniProt O14920); experiment: Inhibition of GST tagged recombinant full length human IKK beta expressed in baculovirus at 500 nM by Z'-LYTE assay
T2 sequence (whole entry): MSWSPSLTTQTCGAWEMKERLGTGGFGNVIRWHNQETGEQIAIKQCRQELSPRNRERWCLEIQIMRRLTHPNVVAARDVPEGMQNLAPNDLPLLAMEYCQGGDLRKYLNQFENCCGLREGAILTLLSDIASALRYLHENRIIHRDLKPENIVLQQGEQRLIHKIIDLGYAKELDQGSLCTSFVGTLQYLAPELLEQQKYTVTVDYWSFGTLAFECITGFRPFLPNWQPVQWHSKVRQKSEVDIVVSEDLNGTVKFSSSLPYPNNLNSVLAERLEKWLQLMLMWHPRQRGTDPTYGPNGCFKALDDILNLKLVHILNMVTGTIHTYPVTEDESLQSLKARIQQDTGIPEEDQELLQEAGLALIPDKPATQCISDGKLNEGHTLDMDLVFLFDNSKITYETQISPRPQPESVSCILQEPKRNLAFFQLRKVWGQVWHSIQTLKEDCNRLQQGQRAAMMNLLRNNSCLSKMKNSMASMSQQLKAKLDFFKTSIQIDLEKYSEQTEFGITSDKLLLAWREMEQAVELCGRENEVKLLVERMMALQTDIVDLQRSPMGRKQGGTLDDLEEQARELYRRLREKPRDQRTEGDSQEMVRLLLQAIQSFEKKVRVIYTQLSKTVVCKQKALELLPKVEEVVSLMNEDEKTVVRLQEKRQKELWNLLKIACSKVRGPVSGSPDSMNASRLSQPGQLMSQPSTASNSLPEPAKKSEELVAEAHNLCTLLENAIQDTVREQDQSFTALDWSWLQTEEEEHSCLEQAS

[7] = molecular target: MAP kinase-activated protein kinase 2 (Homo sapiens) (UniProt P49137); experiment: Inhibition of His tagged recombinant full length human MAPKAPK2 expressed in Escherichia coli at 500 nM by Z'-LYTE assay
[8] = molecular target: Platelet-derived growth factor receptor beta (Homo sapiens) (UniProt P09619); experiment: Inhibition of His tagged recombinant human PDGFRB cytoplasmic domain (558 to 1106 residues) expressed in baculovirus at 500 nM by Z'-LYTE assay
[9] = molecular target: Serine/threonine-protein kinase PLK1 (Homo sapiens) (UniProt P53350); experiment: Inhibition of His tagged recombinant full length human PLK1 expressed in baculovirus at 500 nM by Z'-LYTE assay
[10] = molecular target: Focal adhesion kinase 1 (Homo sapiens) (UniProt Q05397); experiment: Inhibition of GST tagged recombinant full length human PTK2 expressed in baculovirus at 500 nM by Z'-LYTE assay
[11] = molecular target: Tyrosine-protein kinase SYK (Homo sapiens) (UniProt P43405); experiment: Inhibition of recombinant full length human N-terminal GST-tagged SYK expressed in baculovirus at 500 nM by Z'-LYTE assay

Platelet-derived growth factor receptor beta (Homo sapiens), sequence (P09619 whole entry, the tested form may be a part): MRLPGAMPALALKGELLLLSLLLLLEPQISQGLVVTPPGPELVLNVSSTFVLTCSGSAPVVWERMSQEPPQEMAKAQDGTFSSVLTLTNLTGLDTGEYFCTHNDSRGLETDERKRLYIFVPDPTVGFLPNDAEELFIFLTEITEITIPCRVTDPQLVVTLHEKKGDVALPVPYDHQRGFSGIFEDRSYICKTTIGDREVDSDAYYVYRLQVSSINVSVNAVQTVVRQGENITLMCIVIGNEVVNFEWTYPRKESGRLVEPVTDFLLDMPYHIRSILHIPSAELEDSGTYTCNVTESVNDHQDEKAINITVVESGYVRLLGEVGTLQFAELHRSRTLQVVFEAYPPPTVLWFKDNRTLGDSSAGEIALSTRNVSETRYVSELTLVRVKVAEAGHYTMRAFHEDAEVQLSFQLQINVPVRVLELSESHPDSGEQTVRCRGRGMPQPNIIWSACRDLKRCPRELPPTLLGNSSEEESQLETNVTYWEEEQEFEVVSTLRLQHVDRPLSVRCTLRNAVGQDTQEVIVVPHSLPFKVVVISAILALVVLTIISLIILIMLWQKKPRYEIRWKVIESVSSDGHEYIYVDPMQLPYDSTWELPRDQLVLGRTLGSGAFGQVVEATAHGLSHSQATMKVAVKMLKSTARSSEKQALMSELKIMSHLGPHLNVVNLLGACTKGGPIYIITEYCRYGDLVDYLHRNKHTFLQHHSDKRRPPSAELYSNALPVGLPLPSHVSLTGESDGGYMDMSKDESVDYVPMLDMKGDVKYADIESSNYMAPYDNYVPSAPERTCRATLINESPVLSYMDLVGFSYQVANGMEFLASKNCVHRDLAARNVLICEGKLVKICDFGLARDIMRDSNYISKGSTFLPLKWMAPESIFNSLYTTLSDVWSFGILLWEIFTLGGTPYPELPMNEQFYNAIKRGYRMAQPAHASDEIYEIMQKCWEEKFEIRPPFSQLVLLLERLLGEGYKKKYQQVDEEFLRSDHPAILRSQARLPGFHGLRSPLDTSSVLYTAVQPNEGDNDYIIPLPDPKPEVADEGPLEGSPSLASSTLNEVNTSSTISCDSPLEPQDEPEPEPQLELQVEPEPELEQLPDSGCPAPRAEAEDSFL
Serine/threonine-protein kinase PLK1 (Homo sapiens), sequence (P53350 whole entry): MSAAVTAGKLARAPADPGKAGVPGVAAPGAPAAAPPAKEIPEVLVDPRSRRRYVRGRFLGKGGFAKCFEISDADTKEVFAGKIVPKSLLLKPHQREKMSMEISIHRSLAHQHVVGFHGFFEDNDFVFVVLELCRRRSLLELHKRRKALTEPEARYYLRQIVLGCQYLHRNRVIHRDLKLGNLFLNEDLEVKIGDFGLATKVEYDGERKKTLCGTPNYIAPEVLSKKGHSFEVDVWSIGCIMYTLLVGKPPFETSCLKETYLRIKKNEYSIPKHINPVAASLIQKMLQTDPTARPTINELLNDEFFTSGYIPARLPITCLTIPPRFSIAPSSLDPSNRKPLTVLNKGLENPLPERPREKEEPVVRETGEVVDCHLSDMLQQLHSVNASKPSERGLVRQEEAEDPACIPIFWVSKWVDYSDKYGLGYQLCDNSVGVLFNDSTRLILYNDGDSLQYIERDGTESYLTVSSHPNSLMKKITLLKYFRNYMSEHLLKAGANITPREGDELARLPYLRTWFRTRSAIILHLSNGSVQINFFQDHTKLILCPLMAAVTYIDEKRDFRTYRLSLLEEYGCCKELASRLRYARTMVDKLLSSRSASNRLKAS
Aurora kinase B (Homo sapiens), sequence (Q96GD4 whole entry): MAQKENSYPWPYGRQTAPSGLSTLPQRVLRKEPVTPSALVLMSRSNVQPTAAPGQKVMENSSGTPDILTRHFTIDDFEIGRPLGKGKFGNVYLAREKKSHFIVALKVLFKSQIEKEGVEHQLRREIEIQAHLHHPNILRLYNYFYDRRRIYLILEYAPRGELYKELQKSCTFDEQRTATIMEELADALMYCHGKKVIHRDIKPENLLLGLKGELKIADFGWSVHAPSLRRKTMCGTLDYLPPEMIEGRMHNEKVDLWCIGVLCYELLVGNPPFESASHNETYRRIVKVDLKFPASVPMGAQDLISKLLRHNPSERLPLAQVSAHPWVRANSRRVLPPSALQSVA
Glycogen synthase kinase-3 beta (Homo sapiens), sequence (P49841 whole entry, looked up): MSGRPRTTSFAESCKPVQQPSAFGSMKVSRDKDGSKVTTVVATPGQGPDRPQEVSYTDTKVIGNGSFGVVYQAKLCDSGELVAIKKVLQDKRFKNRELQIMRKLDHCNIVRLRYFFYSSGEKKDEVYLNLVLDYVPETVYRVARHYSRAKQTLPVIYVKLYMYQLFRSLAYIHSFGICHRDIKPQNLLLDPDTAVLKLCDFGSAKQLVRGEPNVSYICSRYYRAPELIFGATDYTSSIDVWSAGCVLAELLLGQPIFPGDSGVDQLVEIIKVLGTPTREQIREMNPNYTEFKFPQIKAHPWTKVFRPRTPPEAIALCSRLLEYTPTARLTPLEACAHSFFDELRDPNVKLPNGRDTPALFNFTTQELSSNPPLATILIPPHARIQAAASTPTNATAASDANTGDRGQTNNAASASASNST
Tyrosine-protein kinase HCK (Homo sapiens), sequence (P08631 2-526 limits assumed): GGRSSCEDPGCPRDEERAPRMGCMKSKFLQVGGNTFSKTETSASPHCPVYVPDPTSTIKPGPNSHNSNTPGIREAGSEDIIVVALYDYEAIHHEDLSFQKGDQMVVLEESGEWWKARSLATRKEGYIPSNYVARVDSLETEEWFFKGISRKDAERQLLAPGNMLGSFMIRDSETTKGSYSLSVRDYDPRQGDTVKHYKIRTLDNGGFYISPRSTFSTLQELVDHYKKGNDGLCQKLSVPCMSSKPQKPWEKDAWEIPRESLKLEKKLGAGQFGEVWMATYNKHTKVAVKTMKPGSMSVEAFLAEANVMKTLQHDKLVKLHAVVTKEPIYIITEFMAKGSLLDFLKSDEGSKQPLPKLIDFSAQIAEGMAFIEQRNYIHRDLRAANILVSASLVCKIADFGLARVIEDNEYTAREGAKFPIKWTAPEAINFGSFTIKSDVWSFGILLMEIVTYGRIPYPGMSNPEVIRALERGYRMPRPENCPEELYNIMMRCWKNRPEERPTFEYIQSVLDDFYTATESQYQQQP
Tyrosine-protein kinase Fer (Homo sapiens), sequence (P16591 whole entry, looked up, the tested form may be a part): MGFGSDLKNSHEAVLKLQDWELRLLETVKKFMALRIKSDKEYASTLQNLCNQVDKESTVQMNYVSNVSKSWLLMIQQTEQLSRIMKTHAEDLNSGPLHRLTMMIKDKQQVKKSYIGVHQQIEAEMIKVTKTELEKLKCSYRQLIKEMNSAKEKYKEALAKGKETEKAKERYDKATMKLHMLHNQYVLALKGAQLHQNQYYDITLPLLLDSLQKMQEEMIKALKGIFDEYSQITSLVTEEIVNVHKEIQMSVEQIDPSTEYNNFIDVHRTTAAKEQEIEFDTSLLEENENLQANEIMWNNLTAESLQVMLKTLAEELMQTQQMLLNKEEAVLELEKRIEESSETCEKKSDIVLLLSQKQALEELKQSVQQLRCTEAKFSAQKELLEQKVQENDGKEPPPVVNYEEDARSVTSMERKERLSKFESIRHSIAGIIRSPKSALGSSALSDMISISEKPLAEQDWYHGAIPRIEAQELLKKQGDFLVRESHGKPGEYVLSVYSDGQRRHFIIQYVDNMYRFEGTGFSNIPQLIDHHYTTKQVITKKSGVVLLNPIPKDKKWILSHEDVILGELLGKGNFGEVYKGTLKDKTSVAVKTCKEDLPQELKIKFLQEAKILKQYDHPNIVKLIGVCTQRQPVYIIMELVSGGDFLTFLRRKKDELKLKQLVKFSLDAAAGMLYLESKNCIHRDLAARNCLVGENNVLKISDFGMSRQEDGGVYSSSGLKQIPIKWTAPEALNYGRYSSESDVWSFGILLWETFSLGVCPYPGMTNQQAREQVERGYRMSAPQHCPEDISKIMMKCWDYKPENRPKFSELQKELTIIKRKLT
MAP kinase-activated protein kinase 2 (Homo sapiens), sequence (P49137 whole entry, looked up, the tested form may be a part): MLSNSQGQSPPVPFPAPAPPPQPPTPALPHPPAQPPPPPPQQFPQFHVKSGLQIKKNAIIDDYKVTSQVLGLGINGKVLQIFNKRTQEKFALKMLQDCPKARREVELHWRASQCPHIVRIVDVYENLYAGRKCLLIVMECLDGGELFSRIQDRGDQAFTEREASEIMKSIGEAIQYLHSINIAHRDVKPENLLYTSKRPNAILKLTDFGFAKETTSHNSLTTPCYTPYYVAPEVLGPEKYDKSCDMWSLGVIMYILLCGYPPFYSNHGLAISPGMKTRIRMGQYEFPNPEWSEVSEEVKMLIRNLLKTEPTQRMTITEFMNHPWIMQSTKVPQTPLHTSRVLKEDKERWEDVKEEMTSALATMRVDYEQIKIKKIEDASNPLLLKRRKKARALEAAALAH

SMILES: C#Cc1cccc(Nc2ncnc3cc(OCCOC)c(OCCOC)cc23)c1
- inhibition [1]: -8%
- inhibition [2]: 20 to 44%
- inhibition [3]: -7%
- inhibition [4]: -1%
- inhibition [5]: 18%
- inhibition [6]: -5%
- inhibition [7]: -1%
- inhibition [8]: -5%
- inhibition [9]: -9%
- inhibition [10]: -3%
- inhibition [11]: 14%

SMILES: C[C@@H](Nc1ncnc2oc(-c3ccc(NCCN4CCCCC4)cc3)cc12)c1ccccc1
- inhibition [1]: 4%
- inhibition [2]: 13 to 31%
- inhibition [3]: -9%
- inhibition [4]: 4%
- inhibition [5]: 20%
- inhibition [6]: 3%
- inhibition [7]: 4%
- inhibition [8]: 5%
- inhibition [9]: -5%
- inhibition [10]: 16%
- inhibition [11]: 11%

SMILES: C[C@@H](Nc1ncnc2oc(-c3ccc(NCCN(C)C)cc3)cc12)c1ccccc1
- inhibition [1]: 4%
- inhibition [2]: 7 to 34%
- inhibition [3]: -2%
- inhibition [4]: 6%
- inhibition [5]: 21%
- inhibition [6]: 2%
- inhibition [7]: 3%
- inhibition [8]: 10%
- inhibition [9]: 0%
- inhibition [10]: 7%
- inhibition [11]: 8%

Source: ChEMBL document CHEMBL3856204, “Chiral 6-aryl-furo[2,3-d]pyrimidin-4-amines as EGFR inhibitors” (Eur J Med Chem, 2016)
